Test results taken from patent US20150265642A1, “NAD BIOSYNTHESIS AND PRECURSORS IN THE PREVENTION AND TREATMENT OF INFLAMMATION” (PRESIDENT AND FELLOWS OF HARVARD COLLEGE, priority 2013, published 2015).

Assays:
[1] = system: mitochondrial-encoded genes (ND1, Cytb, COX1 and ATP6); assay: qPCR of mitochondrial-encoded genes in gastrocnemius of NMN-treated mice; assay type: in vivo
Text: (§1) C57BL/6J mice of 6, 22, or 30 months of age were obtained from the National Institutes of Aging mouse aging colony. Additionally 22 months old caloric restricted mice were also obtained from the National Institutes of Aging mouse aging colony. EGLN1 KO, SIRT1 KO and SIRT1 OE mice were generated as previously described (Minamishima et al., 2008; Price et al., 2012). Mice were acclimated for at least one-week prior to sacrifice. 3, 6, 22 and 24-month-old mice were given interperitoneal (IP) injections of 500 mg NMN/kg body weight per day or the equivalent volume of PBS for 7 consecutive days at 5:00 pm and 7:00 am on day 8 and sacrificed 4 hr after last injection.
(§2) Whole body adult-inducible Egln1 knockout mice (Minamishima et al, 2007) were treated with IP injection of tamoxifen for 3 days after which they were allowed to rest. The mice were given interperitoneal (IP) injections of 500 mg NMN/kg body weight per day or the equivalent volume of PBS for 7 consecutive days at 5:00 pm and 7:00 am on day 8 and sacrificed 4 hr after last injection. All animal studies followed the guidelines of and were approved by the Harvard Institutional Animal Care and Use Committee.
RNA from skeletal muscle tissue and C2C12 cells were extracted with RNeasy mini kit (Qiagen) according to the instructions and quantified using the NanoDrop 1000 spectrophotometer (Thermo Scientific). cDNA was synthesized with the iSCRIP cDNA synthesis kit (BioRad) using 600 ng of RNA. Quantitative RT-PCR reactions were performed using 1 μM of primers and LightCycler® 480 SYBR Green Master (Roche) on an LightCycler® 480 detection system (Roche). Calculations were performed by a comparative method (2-ΔCT) using 18S as an internal control. For mtDNA analysis, total DNA was extracted with DNeasy blood and tissue kit (Qiagen). mtDNA was amplified using primers specific for the mitochondrial cytochrome c oxidase subunit 2 (COX2) gene and normalized to genomic DNA by amplification of the ribosomal protein s18 (rps18) nuclear gene. […]

[2] = system: inflammation related markers in aortas; assay: qPCR of inflammation related markers in aortas; assay type: in vivo, C57BL/6J mice; conditions: 22-months-old mice, NMN IP 500 mg/kg/day, 7 days
Procedure: (§3) C57BL/6J mice of 3, 6, 22, or 24 months of age were obtained from the National Institutes of Aging mouse aging colony. Mice were acclimated for at least one-week prior to sacrifice. 3, 6, 22 and 24-month-old mice were given interperitoneal (IP) injections of 500 mg NMN/kg body weight per day or the equivalent volume of PBS for 7 consecutive days at 5:00 pm and 7:00 am on day 8 and sacrificed 4 hr after last injection. All animal studies followed the guidelines of and were approved by the Harvard Institutional Animal Care and Use Committee
RNA from skeletal muscle and aorta were extracted with RNeasy mini kit (Qiagen) according to the instructions and quantified using the NanoDrop 1000 spectrophotometer (Thermo Scientific). cDNA was synthesized with the iSCRIP cDNA synthesis kit (BioRad) using 600 ng of RNA. Quantitative RT-PCR reactions were performed using 1 μM of primers and LightCycler® 480 SYBR Green Master (Roche) on an LightCycler® 480 detection system (Roche). Calculations were performed by a comparative method (2-ΔCT) using 18S as an internal control. Primers were designed using the IDT software (IDT).

[3] = system: skeletal muscle mitochondria; assay: Mitochondrial function in skeletal muscle (membrane potential, ATP content, COX activity); assay type: in vivo, mice
Procedure: as §3, with “6, 22, 24, or 30” for “6, 22, or 24”, “24, or 30 months of” for “22, or 24 months of”, “sacrifice. 3, and 24-month-old” for “sacrifice. 3, 6, 22 and 24-month-old”
Skeletal muscle mitochondria were isolated as described previously (Frezza et al., Nat. Protoc. 2:287-295 (2007)). Mitochondrial membrane potential, cytochrome c activity and succinate dehydrogenase were determined as described (Brautigan et al., Methods Enzymol. 53:128-164 (1978); Rolo et al., Biochim. Biophys. Acta. 1637:127-132 ([…]); Singer, T. P., Methods Biochem. Anal. 22:123-175 (1974)). ATP content was measured with a commercial kit according to the manufacturer's instructions (Roche).
as §1, §2
Cytochrome c oxidase activity was polarographically determined based on the 02 consumption upon cytochrome c oxidation, as previously described (Brautigan et al., 1978). The reaction was carried out at 25° C. in 1.3 mL of standard respiratory medium (as in mitochondrial respiration) supplemented with 2 μM rotenone, 10 μM oxidized cytochrome c, 0.3 mg TritonX-100. Following addition of the sample, the reaction was initiated by adding 5 mM ascorbate plus 0.25 mM tetramethylphenylene-diamine (TMPD).
ATP content was measured with a commercial kit according to the manufacturer's instructions (Roche).

[4] = Egln1 KO mice treated with NMN, compared to WT controls
[5] = treated 24-month-old mice, NMN 500 mg/kg IP, one week

NC(=O)c1ccc[n+]([C@@H]2O[C@H](COP(=O)([O-])O)[C@@H](O)[C@H]2O)c1 [NMN, nicotinamide mononucleotide]
mitochondrial-encoded genes in the skeletal muscle [1, 4]: did not restore | ability of NMN to induce mitochondrially-encoded genes ([1]; inducible SIRT1 KO mice, skeletal muscle): lost in animals lacking SIRT1 | expression of mitochondrial-encoded genes ([1]; old (22-month-old) mice, gastrocnemius, NMN one week): restored | inflammation related markers (IL-6, TNFa, Nlrp3, IL-1b, CD68 and IL-10) in aortas ([2]; FIG. 26): reduces inflammation in aortas from old mice | inflammatory markers (VEGF and IL-18) in aortas ([2]; FIG. 27): reduces inflammation in aortas from old mice | ATP levels ([3]; 22-month-old mice, gastrocnemius, NMN one week): increase | ATP levels in the skeletal muscle [3, 4]: did not restore | ability of NMN to improve mitochondrial function ([3]; inducible SIRT1 KO mice): lost in animals lacking SIRT1 | COX activity ([3]; old mice, NMN one week (FIG. 24H: 3- and 24-month-old)): increase | ATP levels [3, 5]: increases | COX activity [3, 5]: increases | mitochondrial membrane potential [3, 5]: restoration of mitochondrial membrane potential to the levels of the young mice
